Values quoted from earlier work in patent publication US20050244367A1 (priority 2004, published 2005).

System: PLA2
Conditions: art-known PLA2 inhibitor classes, order of magnitude given in words

SMILES	IC50
O=C(O)CC[C@@H](CSc1ccc(Cc2ccccc2)cc1)NC(=O)CCCCCCc1ccccc1	sub μM range
CC(C)c1ccc2c(c1)CCC1C(C)(CNCCC(N)c3ccc(F)cc3)CCCC21C (stereo not shown)	μM range
CCc1c(CC(N)=O)c2cc(OCCCP(=O)(O)O)ccc2n1Cc1ccccc1	sub μM range
CCC(CCCCSc1ccc(C)cc1)c1ccc(F)cc1 (stereo not shown)	μM range
CCN(CC)CCN(Cc1ccc(-c2ccc(C(F)(F)F)cc2)cc1)C(=O)Cn1cc(Cc2ccn(C)n2)c(=O)nc1SCc1ccc(F)cc1	nM or subnM range
COC1=CCC2=C(CCC3C2CC[C@@]2(C)C3CC[C@@H]2N(C)CCCN(C)C)C1 (stereo partly shown)	sub μM range
CC(C)c1ccc2c(c1)CCC1C(C)(CNCCC(=O)c3ccc(F)cc3)CCCC21C (stereo not shown)	μM range
